Where two headings read alike, the source gives them in different places.
What was measured:
HL-60 cells [1] = experiment: MTT assay, metabolic activity (cytotoxicity); format: cell-based, human; conditions: for IC50: MTT
Protocol: (§1) Metabolic activity by MTT assay
(§2) The MTT (3-([…])-2,5-diphenyl tetrazolium bromide) assay was performed to assess the cytotoxicity of the investigated compounds. Briefly, HL-60, MCF-7 and HUVEC cells were seeded in 24-well plates at density of 8 × 10^4/mL. After 24 h incubation, cells were treated with various concentrations of the compounds and incubated for another 24 h or 48 h. Then, the cells were incubated with MTT solution (100 µL; 5 mg/mL in PBS) for 1.5 h and centrifuged. The formazan product was dissolved in DMSO, and the absorption was measured using FlexStation 3 Multi-Mode Microplate Reader (Molecular Devices, LLC, San Jose, CA, USA) at 560 nm. Assays were performed twice in triplicate for each analog.
(§3) The cytotoxic activity of the obtained methylidenetetrahydropyran-4-ones was investigated in two cancer cell lines, human promyelocytic leukemia (HL-60) and breast cancer adenocarcinoma (MCF-7), and in healthy umbilical vein endothelial cells (HUVEC), for comparison. An anticancer drug, carboplatin, was used as a reference compound. Metabolic activity of the cells was assessed after 48 h incubation with various concentrations of the analogs (Table 6). Purity of all final compounds was determined on the basis of their ^1H NMR spectra (signal-to-noise ratio and presence of unidentified signals) and was at least 98%, in most cases even over 99%.

MCF-7 cells = experiment: MTT assay, metabolic activity (cytotoxicity); format: cell-based, human; conditions: Homo sapiens, MCF7, 48 h incubation, mean ± SEM
Protocol: as §1, §2, §3

HL-60 cells [2] = experiment: Annexin V / propidium iodide apoptosis assay, flow cytometry; format: cell-based, human; conditions: for early apoptotic cells (Annexin V-positive and PI-negative) / late apoptotic cells (Annexin V-positive and PI-positive): compound at 2IC50, 24 h; for early apoptotic cells (Annexin V-positive and PI-negative): control 3.3 ± 0.36%; for late apoptotic cells (Annexin V-positive and PI-positive): control 5.5 ± 1.02%; for change in the number of apoptotic cells: compound at IC50, 24 h
Protocol: Apoptotic cells were detected using FITC Annexin V Apoptosis Detection Kit I (BD Biosciences, San Jose, CA, USA). HL-60 cells (2.0 × 10^5 cells/mL) seeded in 6-well plates and cultured overnight were treated with various concentrations of 13d or 13g for 24 h. Then, the cells were washed with PBS and resuspended in the binding buffer. After staining with FITC Annexin V and propidium iodide (15 min, room temperature) cells were analyzed by flow cytometry using CytoFlex and Kaluza Analysis Software v2 (Beckman Coulter Inc., Brea, CA, USA).
One of the typical features of apoptotic cell death is translocation of phosphatidylserine from the inside surface to the extracellular surface of the cell membrane, which can be detected with Annexin V [27]. Therefore, to examine the ability of the investigated compounds to induce apoptosis in HL-60 cells, we performed Annexin V and propidium iodide (PI) staining (Figure 5C and Figure 6C). In the control group, 90.3 ± 1.15% of HL-60 cells were healthy, 3.3 ± 0.36% were in early stage of apoptosis (Annexin V-positive and PI-negative) and 5.5 ± 1.02% were in late-stage apoptosis (Annaxin V-positive and PI-positive).

γH2AX in HL-60 cells = experiment: γH2AX (H2AX pS139) DNA damage detection, flow cytometry; format: cell-based, human; conditions: compound at 2IC50, 24 h; control 1.1 ± 0.17%
Protocol: (§4) Analysis of apoptosis, DNA damage and cell cycle
(§5) Apoptosis, DNA damage, proliferation and cell cycle kinetics were investigated using the Apoptosis, DNA Damage and Cell Proliferation Kit (BD Biosciences, San Jose, CA, USA) according to the manufacturer’s protocol. Briefly, HL-60 cells (2.0 × 10^5 cells/mL) were seeded in 6-well plates and left to grow for 24 h. Then, the cells were treated with 13d or 13g at IC50 and 2IC50 concentrations. After 24 h incubation, the cells were treated with BrdU solution for 8 h. Then, the cells were collected by centrifugation, fixed and permeabilized. To expose the incorporated BrdU, the cells were incubated with DNase (300 µg/mL in PBS) for 1 h at 37 °C. Afterwards, the cells were stained with fluorescent antibodies, including Anti-BrdU, Anti-Cleaved PARP (Asp214) and Anti-H2AX (pS139) for 20 min at room temperature. Total DNA for cell cycle analysis was stained using DAPI solution (1 µg/mL in staining buffer). Finally, the cells were analyzed by flow cytometry using CytoFLEX (Beckman Coulter, Inc., Brea, CA, USA) and the data analysis was performed with Kaluza Analysis Software v2 (Beckam Coulter, Inc., Brea, CA. USA).
DNA damage can be the result of either single- or double-strand breaks (DSBs). DSB are considered the most dangerous, as it is assumed that in metazoan, just one DSB has the potential to trigger cell death. […]

HL-60 cells [3] = experiment: Cell cycle distribution, DAPI DNA staining and flow cytometry; format: cell-based, human; conditions: 24 h
Protocol: as §4, §5
The cell cycle has a critical role in regulation of cell growth, proliferation and division of cells after DNA damage. Therefore, it often serves as a target in cancer therapy development. The cell cycle distribution was investigated using DAPI DNA staining and flow cytometry analysis.

human topoisomerase IIα = target: T1, human topoisomerase IIα (Homo sapiens, UniProt P11388); experiment: Human Topoisomerase II Decatenation Assay (kDNA); format: biochemical; conditions: for inhibition of topoisomerase II activity: 0.5 mM and 1 mM concentrations, 30 min at 37 °C
T1 construct: purchased Inspiralis, Norwich, UK
Protocol: Topoisomerase IIα activity
Topoisomerase IIα activity inhibition was assessed using the Human Topoisomerase II Decatenation Assay (Inspiralis, Norwich, UK). Briefly, kDNA was incubated with ATP, assay buffer (50 mM Tris-HCl pH 7.5, 125 mM NaCl, 10 mM MgCl2, 5 mM DTT, 100 µg/mL albumin), human topoisomerase II enzyme and various concentrations of the investigated compounds for 30 min at 37 °C. The reaction was stopped by addition of STEB (40% (w/v) sucrose, 100 mM Tris-HCl pH 8, 1 mM EDTA, 0.5 mg/mL bromophenol blue) followed by DNA extraction with chloroform/iso-amyl alcohol mixture (24:1). The samples were loaded onto a 1% agarose gel and run in a TBE buffer at 85 V for 65 min. Gels were stained with ethidium bromide (1 µg/mL) for 15 min, destained in water and visualized with a transilluminator (ChemiDoc MP Imaging System, Bio-Rad, Hercules, CA, USA).
The ability of the analogs to inhibit topoisomerase II activity was investigated by measuring decatenation of kinetoplast DNA (kDNA) by human topoisomerase IIα. Topoisomerase II has the ability to decatenate interlinked dsDNA minicircles.

[4] = Homo sapiens, HL-60, 24 h, 24 h incubation, read-out: IC50 HL-60 after 24 h incubation
[5] = Homo sapiens, HL-60, 48 h, 48 h incubation, mean ± SEM, read-out: IC50 HL-60

T1 sequence (P11388 whole entry): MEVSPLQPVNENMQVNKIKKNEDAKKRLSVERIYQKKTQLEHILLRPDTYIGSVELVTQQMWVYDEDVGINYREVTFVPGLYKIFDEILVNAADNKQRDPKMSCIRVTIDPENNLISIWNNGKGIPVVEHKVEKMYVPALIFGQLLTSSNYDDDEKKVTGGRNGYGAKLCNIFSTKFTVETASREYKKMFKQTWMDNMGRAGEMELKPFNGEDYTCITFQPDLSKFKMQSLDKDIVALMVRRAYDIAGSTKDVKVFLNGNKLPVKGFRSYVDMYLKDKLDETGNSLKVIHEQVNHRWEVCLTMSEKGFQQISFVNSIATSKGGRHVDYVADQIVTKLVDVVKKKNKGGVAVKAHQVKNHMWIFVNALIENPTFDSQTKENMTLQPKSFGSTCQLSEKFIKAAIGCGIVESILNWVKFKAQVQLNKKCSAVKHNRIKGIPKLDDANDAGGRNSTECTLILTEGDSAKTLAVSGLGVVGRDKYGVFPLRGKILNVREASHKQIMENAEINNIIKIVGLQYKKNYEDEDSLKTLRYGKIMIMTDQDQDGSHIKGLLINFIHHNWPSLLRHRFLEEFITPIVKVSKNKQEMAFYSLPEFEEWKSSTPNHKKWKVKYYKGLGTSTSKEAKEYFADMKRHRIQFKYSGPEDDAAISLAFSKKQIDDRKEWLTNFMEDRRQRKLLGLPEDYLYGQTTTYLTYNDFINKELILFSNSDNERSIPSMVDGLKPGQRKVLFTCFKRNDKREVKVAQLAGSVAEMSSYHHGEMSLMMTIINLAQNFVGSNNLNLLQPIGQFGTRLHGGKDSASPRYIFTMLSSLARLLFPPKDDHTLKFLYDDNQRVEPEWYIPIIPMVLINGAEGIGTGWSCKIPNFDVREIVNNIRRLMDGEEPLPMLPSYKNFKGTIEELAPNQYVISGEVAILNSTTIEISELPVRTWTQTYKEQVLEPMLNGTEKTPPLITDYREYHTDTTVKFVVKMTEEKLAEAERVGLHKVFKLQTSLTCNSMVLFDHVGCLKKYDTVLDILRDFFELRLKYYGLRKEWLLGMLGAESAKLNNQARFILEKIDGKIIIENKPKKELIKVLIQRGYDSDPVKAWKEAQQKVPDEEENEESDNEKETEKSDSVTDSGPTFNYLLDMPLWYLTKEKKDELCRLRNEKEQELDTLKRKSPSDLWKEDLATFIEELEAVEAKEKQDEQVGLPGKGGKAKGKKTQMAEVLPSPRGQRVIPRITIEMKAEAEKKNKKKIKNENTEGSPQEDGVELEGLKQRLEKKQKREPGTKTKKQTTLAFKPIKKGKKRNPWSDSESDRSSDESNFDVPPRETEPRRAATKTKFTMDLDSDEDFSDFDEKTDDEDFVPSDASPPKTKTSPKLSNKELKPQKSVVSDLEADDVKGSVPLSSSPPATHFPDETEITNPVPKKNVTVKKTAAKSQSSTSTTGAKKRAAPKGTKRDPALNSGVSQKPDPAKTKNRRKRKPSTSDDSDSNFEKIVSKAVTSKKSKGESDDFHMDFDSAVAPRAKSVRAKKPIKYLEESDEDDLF

Compound	selectivity, inhibitory activity in HL-60 versus HUVEC cells (cancer/healthy cell IC50 ratio) (HL-60 cells [1]; HL-60 compared to normal HUVEC cells, 48 h)	IC50 (HL-60 cells [1]; [4]) [µM]	IC50 (HL-60 cells [1]; [5]) [µM]	IC50 (MCF-7 cells) [µM]	early apoptotic cells (Annexin V-positive and PI-negative) (HL-60 cells [2]) [%]	late apoptotic cells (Annexin V-positive and PI-positive) (HL-60 cells [2]) [%]	change in the number of apoptotic cells (HL-60 cells [2])	cells with γH2AX generation (H2AX phosphorylation) (γH2AX in HL-60 cells) [%]	population of cells in G0/G1 phase (HL-60 cells [3]; compound at 2IC50 concentration)	cells in the G2/M phase (HL-60 cells [3]; compound at 2IC50 concentration, control 14.9 ± 1.37%) [%]	inhibition of topoisomerase II activity (human topoisomerase IIα)	IC50 (HL-60 cells [1]; 48 h incubation, mean ± SEM, read-out: IC50 HL-60) [µM]	change of G2/M cell population (HL-60 cells [3]; not statistically significant)	inhibitory activity towards topoisomerase IIα compared with 13d (human topoisomerase IIα; 0.5 and 1 mM)
C=C1C(=O)C[C@H](C(C)C)O[C@H]1C(C)C (relative stereo) [Analog 13d, Trans-2,6-diisopropyl-3-methylidenetetrahydro-4H-pyran-4-one]	over 3 fold	15.7 ± 0.61	7.65 ± 0.05	14 ± 1	13.0 ± 2.64	24.6 ± 2.34	did not induce a significant change	38.4 ± 5.89	diminished	24.1 ± 1.40	inhibited topoisomerase II activity	–	–	–
C=C1C(=O)C[C@H](c2ccccc2)O[C@H]1C(C)C (relative stereo) [Analog 13g, Trans-2-isopropyl-3-methylidene-6-phenyltetrahydro-4H-pyran-4-one]	–	6.49 ± 0.31	< 4	8.63 ± 0.07	8.7 ± 0.57	39.5 ± 1.16	not effective	9.6 ± 2.94	–	–	inhibited topoisomerase II activity	3.69 ± 0.08	slight increase	stronger inhibitory activity

Reference: paper PMC9105583, “Stereoselective Synthesis and Anticancer Activity of 2,6-Disubstituted trans-3-Methylidenetetrahydropyran-4-ones” (Materials, 2022)
